Laboratory results taken from patent publication US10179355B2, “Bioremediation enhancing agents and methods of use” (JRW BIOREMEDIATION, LLC, priority 2007, dated 2019).

How the values were obtained:
[1] = tested on: dechlorinating bacteria known to convert PCE to ethene; assay: Set A: Ladder of YM, PCE dechlorination microcosms (kinetics, Relative Rate, paired t-test); assay type: cell-based, Dehalococcoides and Dehalobacter spp.
Source text: (§1) Certain contaminated materials (or sites) may contain indigenous microbial communities that are sufficient for complete bioremediation of contaminants. For such sites, there is no need to add microbes unless the indigenous microbes are genetically deficient in achieving the desired clean-up goals. For those sites that are microbiologically limited, microorganisms may be added to the contaminated materials (or sites). In one embodiment, the inoculum may be a mixed culture of halo-respiring bacteria that have been enriched to reach an optimal cell density. These mixed cultures of halo-respiring bacteria may be typically obtained from sediment samples from rivers, streams or any waterways. More specifically, the inoculum used in the Examples was originated from a Sangamon River sediment sample (Lodge Park, Piatt County, Ill.) See, e.g., Brennan, R. A., Sanford, R. A. and Werth, C. J. (2006). “Biodegradation of Tetrachloroethene by Chitin Fermentation Products in a Continuous Flow Column System.” Journal of Environ. Engr., June 665-673. This culture had grown for several years on PCE, anaerobic basal salts medium, Wolfe's vitamin solution and various electron donors including lactate (1-2 millimolar (mM)), formate (4 mM) and chitin using the Volatile Interface Transfer Apparatus (VITA) reactor system at the University of Illinois. Brennan, R. A., and Sanford, R. A. (2002). “Continuous steady-state method using Tenax for delivering tetrachloroethene to chlororespiring bacteria.” Appl. Environ. Microbiol., 68(3), 1464-1467. […] Using 16S rRNA gene-specific primers, both Dehalococcoides and Dehalobacter spp. were detected. Quantitative real-time PCR has been used to determine that approximately 1.65×10^7 Dehalococcoides gene copies were present per ml of culture.
(§2) For purpose of this disclosure, each bottle may be started with a certain amount of PCE. At subsequent times each bottle may be sampled for the degradation daughter products of PCE, namely trichloroethene (TCE), cis-dichloroethene (DCE), vinyl chloride (VC) and ethene, etc. Trans-DCE and 1,1-DCE are also daughter products of PCE, but they may not be detectable under the conditions disclosed here.
(§3) The rate of degradation may be determined by calculating the number of pmoles of chloride ions removed from PCE and subsequently from the amounts of the daughter products generated. The calculation may be performed as follows: Chloride (μmoles)=[…]−4×PCE (μmoles)−3×TCE (pmoles)−2×DCE (μmoles)−VC (μmoles)
The alternative chloride calculation is: Chloride (μmoles)=TCE (μmoles)+2×DCE (μmoles)+3×VC (μmoles)+4×Ethene (μmoles)
(§4) Next, the dechlorination rate may be determined for each bottle at each time by dividing the Chloride generated by the time (days). The data may be then normalized to the lactate control by taking the ratio of Chloride Rate (pmoles/day) and the Lactate Control Chloride Rate (pmoles/day). This ratio is called Relative Rate and is dimensionless.
(§5) As shown in the Examples, a paired t-test has been conducted to calculate the probability that the Relative Rate of one group (i.e. with Nutrient) is greater than the other group (i.e. without Nutrient). The null hypothesis is that the underlying means of the two paired groups are equal. The Probability that one group has higher Relative Rates than the other group is shown in various tables in the Examples.
The following components were used in the system for bioremediating contaminated ground water microcosms in Examples 2-8: • 160 milliliter (ml) stoppered serum bottles • 100 ml of anaerobic culture medium, groundwater containing an excess of bioavailable phosphorus and nitrogen at 0.5 mM Phosphate and 1 mM ammonium degassed with a nitrogen sparge • Nominally 1 gram of limestone • 19.54 micromoles (pmoles) Perchloroethene (PCE) • An excess of various electron donors were utilized • 3 ml of inoculum containing dechlorinating bacteria known to convert PCE to ethene. […]

[2] = tested on: dechlorinating bacteria known to convert PCE to ethene; assay: Set B: Erythorbate ML with and without YM2, PCE dechlorination microcosms (kinetics, Relative Rate); assay type: cell-based, Dehalococcoides and Dehalobacter spp.
Source text: as §1, §2, §3, §4, §5
The following components were used in the system for bioremediating contaminated ground water microcosms in Examples 2-8: • 160 milliliter (ml) stoppered serum bottles • 100 ml of anaerobic culture medium, groundwater containing an excess of bioavailable phosphorus and nitrogen at 0.5 mM Phosphate and 1 mM ammonium degassed with a nitrogen sparge • Nominally 1 gram of limestone • 19.54 micromoles (pmoles) Perchloroethene (PCE) • An excess of various electron donors were utilized • 3 ml of inoculum containing dechlorinating bacteria known to convert PCE to ethene.
The second set of microcosms used Erythorbate ML as the electron donor at 1020 mg/L initial concentration. […]

`CC(O)C(=O)[O-].[Na+]` (stereo not drawn) [Lactate Control, sodium lactate] was tested, and the “Average Relative Rate” value [1] was 1.00, the “Cl^− Rate ± s.d.” value ([1]; 0 days) was 0.00 ± 0.00 µmol and the “Cl^− ± s.d.” value ([1]; 0 days) was 0.00 ± 0.00 µmol. For the same molecule, the “DCE ± s.d.” value ([1]; 0 days) was 0.00 ± 0.00 µmol, the “Ethene ± s.d.” value ([1]; 0 days) was 0.00 ± 0.00 µmol and the “PCE ± s.d.” value ([1]; 0 days) was 19.54 ± 0.00 µmol. For the same molecule, the “TCE ± s.d.” value ([1]; 0 days) was 0.00 ± 0.00 µmol, the “VC ± s.d.” value ([1]; 0 days) was 0.00 ± 0.00 µmol and the “Cl^− Rate ± s.d.” value ([1]; 14 days) was 2.58 ± 0.17 µmol. For the same molecule, the “Cl^− ± s.d.” value ([1]; 14 days) was 36.18 ± 2.43 µmol, the “DCE ± s.d.” value ([1]; 14 days) was 0.42 ± 0.03 µmol and the “Ethene ± s.d.” value ([1]; 14 days) was 0.00 ± 0.00 µmol. For the same molecule, the “PCE ± s.d.” value ([1]; 14 days) was 8.45 ± 0.55 µmol, the “TCE ± s.d.” value ([1]; 14 days) was 2.00 ± 0.04 µmol and the “VC ± s.d.” value ([1]; 14 days) was 1.33 ± 0.41 µmol. For the same molecule, the “Cl^− Rate ± s.d.” value ([1]; 35 days) was 1.33 ± 0.15 µmol, the “Cl^− ± s.d.” value ([1]; 35 days) was 46.47 ± 5.25 µmol and the “DCE ± s.d.” value ([1]; 35 days) was 1.60 ± 0.82 µmol. The “Ethene ± s.d.” value ([1]; 35 days) was 0.33 ± 0.29 µmol, the “PCE ± s.d.” value ([1]; 35 days) was 4.08 ± 0.81 µmol and the “TCE ± s.d.” value ([1]; 35 days) was 2.77 ± 0.47 µmol. For the same molecule, the “VC ± s.d.” value ([1]; 35 days) was 3.86 ± 2.11 µmol, the “Cl^− Rate ± s.d.” value ([1]; 53 days) was 1.06 ± 0.06 µmol and the “Cl^− ± s.d.” value ([1]; 53 days) was 56.17 ± 3.17 µmol. For the same molecule, the “DCE ± s.d.” value ([1]; 53 days) was 5.31 ± 1.00 µmol, the “Ethene ± s.d.” value ([1]; 53 days) was 0.78 ± 0.79 µmol and the “PCE ± s.d.” value ([1]; 53 days) was 0.33 ± 0.27 µmol. For the same molecule, the “TCE ± s.d.” value ([1]; 53 days) was 0.52 ± 0.47 µmol, the “VC ± s.d.” value ([1]; 53 days) was 8.52 ± 6.24 µmol and the “Relative Rate” value ([1]; bottle 1, 14 days) was 0.92. The “Relative Rate” value ([1]; bottle 1, 35 days) was 1.11, the “Relative Rate” value ([1]; bottle 1, 53 days) was 0.96 and the “Relative Rate” value ([1]; bottle 2, 14 days) was 1.02. For the same molecule, the “Relative Rate” value ([1]; bottle 2, 35 days) was 1.00, the “Relative Rate” value ([1]; bottle 2, 53 days) was 1.06 and the “Relative Rate” value ([1]; bottle 3, 14 days) was 1.05. For the same molecule, the “Relative Rate” value ([1]; bottle 3, 35 days) was 0.89, the “Relative Rate” value ([1]; bottle 3, 53 days) was 0.98 and the “Cl^− Rate ± s.d.” value ([2]; 0 days) was 0.00 ± 0.00 µmol. For the same molecule, the “Cl^− ± s.d.” value ([2]; 0 days) was 0.00 ± 0.00 µmol, the “DCE ± s.d.” value ([2]; 0 days) was 0.00 ± 0.00 µmol and the “Ethene ± s.d.” value ([2]; 0 days) was 0.00 ± 0.00 µmol. The “PCE ± s.d.” value ([2]; 0 days) was 19.54 ± 0.00 µmol, the “TCE ± s.d.” value ([2]; 0 days) was 0.00 ± 0.00 µmol and the “VC ± s.d.” value ([2]; 0 days) was 0.00 ± 0.00 µmol. The “Cl^− Rate ± s.d.” value ([2]; 21 days) was 1.61 ± 0.14 µmol, the “Cl^− ± s.d.” value ([2]; 21 days) was 33.88 ± 2.96 µmol and the “DCE ± s.d.” value ([2]; 21 days) was 0.83 ± 0.07 µmol. For the same molecule, the “Ethene ± s.d.” value ([2]; 21 days) was 0.29 ± 0.08 µmol, the “PCE ± s.d.” value ([2]; 21 days) was 7.22 ± 0.85 µmol and the “TCE ± s.d.” value ([2]; 21 days) was 3.15 ± 0.11 µmol. The “VC ± s.d.” value ([2]; 21 days) was 4.28 ± 0.44 µmol, the “Cl^− Rate ± s.d.” value ([2]; 35 days) was 1.11 ± 0.12 µmol and the “Cl^− ± s.d.” value ([2]; 35 days) was 39.00 ± 4.35 µmol. For the same molecule, the “DCE ± s.d.” value ([2]; 35 days) was 2.57 ± 0.34 µmol, the “Ethene ± s.d.” value ([2]; 35 days) was 0.53 ± 0.12 µmol and the “PCE ± s.d.” value ([2]; 35 days) was 3.58 ± 0.90 µmol. The “TCE ± s.d.” value ([2]; 35 days) was 3.77 ± 0.18 µmol, the “VC ± s.d.” value ([2]; 35 days) was 8.37 ± 0.37 µmol and the “Cl^− Rate ± s.d.” value ([2]; 49 days) was 1.05 ± 0.04 µmol. The “Cl^− ± s.d.” value ([2]; 49 days) was 51.67 ± 1.97 µmol, the “DCE ± s.d.” value ([2]; 49 days) was 1.31 ± 0.95 µmol and the “Ethene ± s.d.” value ([2]; 49 days) was 1.05 ± 0.22 µmol. The “PCE ± s.d.” value ([2]; 49 days) was 0.04 ± 0.01 µmol, the “TCE ± s.d.” value ([2]; 49 days) was 0.10 ± 0.03 µmol and the “VC ± s.d.” value ([2]; 49 days) was 23.41 ± 0.34 µmol.
